Assay results taken from ChEMBL document CHEMBL1124432, “(6R,6S)-5,8,10-trideaza-5,6,7,8-tetrahydrofolate and 6(R,6S)-5,8,10-trideaza-5,6,7,8-tetrahydropteroyl-L-ornithine as potential antifolates and antitumor agents” (J Med Chem, 1989).

Legend:
[1] = Inhibitory activity against the growth of SSC15 human squamous carcinoma cells; value ranges from 20-60; type: functional
CCRF-CEM = assay: Inhibitory activity against the growth of CEM human leukoblast cells; value ranges from 20-60; type: functional, cell-based
L1210 = assay: Inhibitory activity against the growth of murine L1210 leukemia cells; value ranges from 20-60; type: functional, cell-based; settings: Mus musculus
[2] = target: T1, Folylpolyglutamate synthase, mitochondrial (Mus musculus) (UniProt P48760); assay: (§1) The apparent Km of compound as a substrate for partially purified mouse liver Folyl-polyglutamate synthase
T1 sequence (whole entry): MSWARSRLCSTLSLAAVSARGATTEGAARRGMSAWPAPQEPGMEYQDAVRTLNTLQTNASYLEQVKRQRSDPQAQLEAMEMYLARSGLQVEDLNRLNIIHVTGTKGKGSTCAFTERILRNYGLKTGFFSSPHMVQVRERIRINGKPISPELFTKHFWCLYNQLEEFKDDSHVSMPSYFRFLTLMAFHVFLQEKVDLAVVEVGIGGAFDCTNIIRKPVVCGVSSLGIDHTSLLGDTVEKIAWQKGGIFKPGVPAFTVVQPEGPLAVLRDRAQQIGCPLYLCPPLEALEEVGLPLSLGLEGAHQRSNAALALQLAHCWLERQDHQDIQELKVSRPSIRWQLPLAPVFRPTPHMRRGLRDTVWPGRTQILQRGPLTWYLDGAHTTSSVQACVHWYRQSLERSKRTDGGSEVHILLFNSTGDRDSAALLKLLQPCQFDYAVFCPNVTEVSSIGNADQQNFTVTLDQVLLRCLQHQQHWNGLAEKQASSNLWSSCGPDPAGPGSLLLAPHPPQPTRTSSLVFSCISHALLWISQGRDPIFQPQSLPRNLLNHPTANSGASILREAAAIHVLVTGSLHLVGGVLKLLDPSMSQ

[3] = substrate: Nc1nc(N)c2nc(CNc3ccc(C(=O)N[C@@H](CCC(=O)O)C(=O)O)cc3)cnc2n1; assay: as §1
[4] = substrate: Nc1nc(O)c2c(n1)NCC(CNc1ccc(C(=O)N[C@@H](CCC(=O)O)C(=O)O)cc1)N2; assay: as §1
[5] = substrate: Nc1nc(O)c2c(n1)CCC(CCc1ccc(C(=O)NC(CCC(=O)O)C(=O)O)cc1)C2; assay: as §1

Nc1nc(O)c2cc(CCc3ccc(C(=O)N[C@@H](CCC(=O)O)C(=O)O)cc3)cnc2n1
IC50 [1]: 60 nM | IC50 (CCRF-CEM): 60 nM | IC50 (L1210): 60 nM

NCCCC(NC(=O)c1ccc(CCC2CCc3nc(N)nc(O)c3C2)cc1)C(=O)O (configuration not stated)
Kis [2]: 10.1 µM

B1: Folylpolyglutamate synthase, mitochondrial (Mus musculus), P48760 (protein)
chain: T1 sequence (whole entry)
Km [3]: 20 µM | Km [4]: 8 µM | Km [5]: 1.54 µM
